From the supplement of paper PMC10307832 come the findings set out here.

Holding throughout (experiment): relative viability (nuclei count vs DMSO), 5 days (fraction); higher = more cells survive
Compound in the assay “Shikonin + Pictilisib”: CC(C)=CC[C@@H](O)C1=CC(=O)c2c(O)ccc(O)c2C1=O [Shikonin] + CS(=O)(=O)N1CCN(Cc2cc3nc(-c4cccc5[nH]ncc45)nc(N4CCOCC4)c3s2)CC1 [Pictilisib] (partner 1 µM)
In outline:
(§1)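 Lung cancer cell lines were pin-tool dosed in 1536-well plates on the day after seeding, with either a lone drug or a fixed anchor-drug dose plus five library-drug doses (not always all listed) in √10 steps. Nuclei were counted on 4× images after 5 days. Relative viability is the ratio of treated-well to vehicle-well nuclei counts, with each value a median of duplicate plates.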

Compound in the assay “Shikonin + Olaparib”: CC(C)=CC[C@@H](O)C1=CC(=O)c2c(O)ccc(O)c2C1=O [Shikonin] + O=C(c1cc(Cc2n[nH]c(=O)c3ccccc23)ccc1F)N1CCN(C(=O)C2CC2)CC1 [Olaparib] (partner 8 µM)
In outline: as §1

Compound in the assay “Shikonin + Navitoclax”: CC(C)=CC[C@@H](O)C1=CC(=O)c2c(O)ccc(O)c2C1=O [Shikonin] + CC1(C)CCC(c2ccc(Cl)cc2)=C(CN2CCN(c3ccc(C(=O)NS(=O)(=O)c4ccc(N[C@H](CCN5CCOCC5)CSc5ccccc5)c(S(=O)(=O)C(F)(F)F)c4)cc3)CC2)C1 [Navitoclax] (partner 0.5 µM)
The essentials: as §1

Compound in assay [1]: CC(C)N(CCCNC(=O)Nc1ccc(C(C)(C)C)cc1)C[C@H]1O[C@@H](n2ccc3c(N)ncnc32)[C@H](O)[C@@H]1O + Cc1nc(Nc2ncc(C(=O)Nc3c(C)cccc3Cl)s2)cc(N2CCN(CCO)CC2)n1 [Dasatinib] (partner 0.075 µM)
The essentials: as §1

For the cell line UMC-11, the relative viability with Shikonin + Pictilisib (first compound 0.01 µM) stood at 0.736; with Shikonin + Pictilisib (first compound 0.1 µM), 0.999; with Shikonin + Pictilisib (first compound 0.3162 µM), 0.76; with Shikonin + Pictilisib (first compound 1 µM), 0.97; with Shikonin + Olaparib (first compound 0.01 µM), 0.332; with Shikonin + Olaparib (first compound 0.1 µM) it was 0.374. The relative viability in the assay with Shikonin + Olaparib (first compound 0.3162 µM) is 0.346; with Shikonin + Olaparib (first compound 1 µM), 0.374; with Shikonin + Navitoclax (first compound 0.01 µM) it was 0.282; with Shikonin + Navitoclax (first compound 0.1 µM) it was 0.324; in the assay with Shikonin + Navitoclax (first compound 0.3162 µM), 0.31; with Shikonin + Navitoclax (first compound 1 µM), 0.318. The relative viability is 0.461 in assay [1] (first compound 0.08 µM); 0.422 in assay [1] (first compound 0.253 µM); 0.436 in assay [1] (first compound 0.8 µM); 0.486 in assay [1] (first compound 2.53 µM); 0.492 in assay [1] (first compound 8 µM).
